Results on one compound are retold here after patent US20230389543A1, “SOLID PHASE MATRIX FOR CROP PROTECTION” (North Carolina State University, priority 2020, published 2023).

“And” between values parts separate entries of the source, which are not always exact repeats. Equal entries are not always repeated.

One assay has as its system Lesion Nematode. Briefly: Sweet potato field trial, lesion nematode count at harvest. The format is in vivo. The protocol:
(§1) Location: The field trial was conducted on a farm in Woodington, NC. The field was confirmed positive for Meloidogyne enterolobii through NCDA Nematode Assay Lab analysis.
(§2) Trial set-up: Sweet potatoes (cv. Covington) were planted at 11 inch within row spacing and 42 inch rows. Plots were 4 rows wide by 10 ft long, with 10 feet between plots. Plots were maintained by the grower collaborator using standard agronomic practices. Vigor data, soil samples for mid-season nematode counts, and harvest data was collected. At harvest, the middle two rows of each plot were dug by hand and tubers assessed. Data were analyzed, plotted, and effect of treatment on yield and nematode variables was assessed through mean separation in R (v. 3.6.2).
(§3) At harvest a soil sample from each plot was collected and 100 cc of soil extracted to determine nematode populations. Three genera of nematode were observed (RKN, stunt and lesion). Counts for the two highest population species, RKN and Lesion at the harvest sampling are reported per 100 g of soil. Population counts of RKN, lesion, and stunt nematode were transformed (log 10(n+1)) prior to analysis to fit assumptions of normality.

Another assay has as its system Root Knot Nematode. Briefly: Sweet potato field trial, root knot nematode count at harvest. It is filed as in vivo, Meloidogyne enterolobii. How it is done:
as §1, §2, §3

Assay [1] concerns Sweet potatoes (cv. Covington). Nature of the assay: Sweet potato field trial, yield. It is filed as in vivo. How it is done:
as §1, §2
Formulations and Application rates: Six different wrap and plant formulations and 2 control treatment were tested.
For each plot the tuber were collect and sorted into 2 groups: #1 grade and cutters/jumbos. In addition, the number of #1 tubers were counted.

Consider `O=C(NCCc1ncc(C(F)(F)F)cc1Cl)c1ccccc1C(F)(F)F` [Treatment 3, Fluopyram], for which the “Average Lesion Population at Harvest” value with Lesion Nematode (Table 12) is on record as 118.75 /100 cc soil. Also, the “Lesion Population, Average” value in the assay with Lesion Nematode (average of 4 plots) came to 118.75. Also, the “Average RKN Population at Harvest” value with Root Knot Nematode (Table 12) is listed as 12.5 /100 cc soil. The “RKN Population, Average” value in the assay with Root Knot Nematode (average of 4 plots) came out at 12.5. In assay [1] (Table 12), the “Average Total Yield” value stood at 22.1. Moreover, the “Yield #1 Tubers, Average” value in assay [1] (average of 4 plots) is 9.8 kg. Besides, in assay [1] (single plot), the “No. of #1 tubers” value was 32 and 36 and 30 and 38; the “Total Yield” value was 22.8 kg and 28.05 kg and 20.9 kg and 16.8 kg; the “Yield of #1” value is 9.35 kg and 12.15 kg and 9.75 kg and 8.1 kg; the “Yield of Jumbo & Canners” value is 13.45 kg and 15.9 kg and 11.15 kg and 8.7 kg. Besides, in assay [1] (single plot, Table 10, listed as Grower Standard), the “Yield #1 Tubers” value is 8.1 kg and 9.4 kg and 12.2 kg and 9.8 kg.
